Laboratory results reported in paper PMC3859608, “C-Terminus of the B-Chain of Relaxin-3 Is Important for Receptor Activity” (PLoS ONE, 2013).
“Also recorded” adds a separate entry of the source.

Tests used:
RXFP3 [1] = target: T1, RXFP3 (Homo sapiens, UniProt Q9NSD7); conditions: cited from earlier work
T1 construct: expressed in transfected cells
T1 sequence (Q9NSD7 1-469): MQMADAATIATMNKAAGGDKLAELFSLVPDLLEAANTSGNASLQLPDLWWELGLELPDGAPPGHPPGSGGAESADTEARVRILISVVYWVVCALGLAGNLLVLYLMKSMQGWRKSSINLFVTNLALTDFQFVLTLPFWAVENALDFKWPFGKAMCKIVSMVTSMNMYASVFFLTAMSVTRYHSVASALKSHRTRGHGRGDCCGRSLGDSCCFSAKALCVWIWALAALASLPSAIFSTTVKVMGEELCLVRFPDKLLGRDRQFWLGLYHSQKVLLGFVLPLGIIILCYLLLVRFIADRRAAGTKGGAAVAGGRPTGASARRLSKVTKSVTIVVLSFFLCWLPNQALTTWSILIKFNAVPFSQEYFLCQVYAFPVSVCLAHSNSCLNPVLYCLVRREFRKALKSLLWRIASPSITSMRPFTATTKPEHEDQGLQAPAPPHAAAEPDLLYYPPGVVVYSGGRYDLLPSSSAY
From the text: (§1) It is a neuropeptide that is primarily expressed in the brain with the highest level detected in the nucleus incertus (NI) of the mouse, [8], rat, macaque and human. Neurons from the NI project to many regions of the brain where its distribution overlaps w ...

RXFP1 = conditions: cited from earlier work
From the text: as §1

RXFP4 [2] = target: T2, RXFP4 (Homo sapiens, UniProt Q8TDU9); conditions: sentence cites ref 7; cited from earlier work
T2 construct: expressed in transfected cells
From the text: as §1

RXFP3 [3] = target: T1, RXFP3; conditions: in presence of orthosteric agonist; H3 amide or H3 acid; cited from earlier work
From the text: In this endeavour, a small molecule, 135PAM1, has recently been discovered by Alvarez-Jaimes et al. They reported that it was an allosteric modulator of RXFP3 that worked in the presence of an orthosteric agonist, H3 relaxin.

RXFP4 [4] = target: T2, RXFP4; assay: Competition binding, Eu-labelled mouse INSL5, CHO-K1 cells expressing RXFP4; conditions: CHO-K1 cells stably expressing RXFP4; Eu-labelled mouse INSL5 2.5 nM; one site competition fit; mean ± SEM, n = 3, triplicate determinations; vs H3 acid: * H3 amide, ** p<0.01 H3 A-acid; read-out: RXFP4 Eu-INSL5 pKi (converted)
Description: (§2) The receptor binding affinity of the peptides was measured using CHO-K1 cells stably expressing RXFP3 and RXFP4. The competition binding assays were carried out as previously described, [27]. Briefly, a single concentration of Eu-labelled I5/R3 (0.5 nM) or Eu-labelled mouse INSL5 (2.5 nM) were used in presence of increasing concentration of peptides. The data were analyzed using GraphPad PRISM 5 (GraphPad Inc., San Diego, USA). The europium binding curves were fitted to a one site competition curve and the pKi values were expressed as the mean ± SEM of at least three independent experiments with triplicate determinations within each assay.
(§3) Figure 3 Receptor binding affinity (pKi) and cAMP activity (pEC-50) curves of H3 relaxin and its variants at RXFP4. A) Competition binding curves of H3 relaxin variants at RXFP4 using a single concentration of Eu-INSL5 (2.5 nM) in the presence of increasing concentrations of the H3 relaxin peptides. B) RXFP4 activation curves of H3 relaxin variants measured in a cAMP activity assays in the presence of 1 µM forskolin. The data were expressed as mean ± SEM from at least three independent experiments.

RXFP3 [5] = target: T1, RXFP3; assay: cAMP activity (inhibition of forskolin-induced cAMP), CHO-K1 cells expressing RXFP3; assay type: cell-based; conditions: CHO-K1 RXFP3, pCRE-β-galactosidase reporter; forskolin 1 µM (method) / 5 µM (Fig. 2 legend); peptide 0.01 nM – 1 µM; mean ± SEM, n = 3, triplicate determinations; ** p<0.01 vs H3 acid (H3 amide, H3 A-acid); read-out: RXFP3 cAMP pEC50 (converted)
Description: (§4) The ability of the peptides to activate the receptors RXFP3/RXFP4 was assessed by measuring their influence on cAMP signalling in CHO-K1 cells stably expressing RXFP3 or RXFP4 transfected with a pCRE-β-galactosidase reporter gene construct as previously described. A single concentration of forskolin was used to stimulate cAMP signalling in cells expressing RXFP3 (1 µM) and RXFP4 (5 µM) and peptide induced inhibition of cAMP signalling was measured by adding increasing concentrations of the peptides (0.01 nM – 1 µM). The ability of the peptides to inhibit forskolin-induced cAMP response (pEC50) was measured and expressed as mean ± SEM from three independent experiments with triplicate determinations within each assay. The inhibition curves were fitted to a single-site sigmoidal dose-response curve with variable slope using Graphpad PRISM 5.
(§5) Figure 2 Receptor binding affinity (pKi) and cAMP activity (pEC-50) curves of H3 relaxin and its variants at RXFP3. A) Competition binding curves of H3 relaxin variants using a single concentration of Eu-I5/R3 (0.5 nM) in the presence of increasing concentrations of the H3 relaxin peptides. B) RXFP3 activation curves of H3 relaxin variants measured in a cAMP activity assay in the presence of 5 µM forskolin. The data were expressed as mean ± SEM. from at least three independent experiments.

RXFP3 [6] = target: T1, RXFP3; assay: Competition binding, Eu-labelled I5/R3, CHO-K1 cells expressing RXFP3; conditions: CHO-K1 cells stably expressing RXFP3; Eu-I5/R3 0.5 nM; one site competition fit; mean ± SEM, n in parentheses in cell (3; H3 amide 4), triplicate determinations; ** p<0.01 vs H3 acid (H3 amide, H3 A-acid); read-out: RXFP3 Eu-H3/I5 pKi (converted)
Description: as §2, §5

RXFP4 [7] = target: T2, RXFP4; assay: cAMP activity (inhibition of forskolin-induced cAMP), CHO-K1 cells expressing RXFP4; assay type: cell-based; conditions: CHO-K1 RXFP4, pCRE-β-galactosidase reporter; forskolin 5 µM (method) / 1 µM (Fig. 3 legend); peptide 0.01 nM – 1 µM; mean ± SEM, n = 3, triplicate determinations; vs H3 acid: * H3 amide, ** p<0.01 H3 A-acid; read-out: RXFP4 cAMP pEC50 (converted)
Description: as §4, §3

RXFP4 [8] = target: T2, RXFP4; conditions: both A and B chain C-termini amidated vs acid; cited from earlier work
From the text: Relaxin-3 is closely related to insulin-like peptide 5 (INSL5) as they both belong to the same branch in the phylogenetic tree of the relaxin family. In addition, the native receptors of relaxin-3 and INSL5, RXFP3 and RXFP4 respectively, belong to the same class of G-protein coupled receptors. On the basis of such close relationship between ligands (relaxin-3 and INSL5) and receptors (RXFP3 and RXFP4), it is most likely that relaxin-3 interacts with RXFP3 in a similar way to INSL5 interaction with RXFP4. Therefore, we tested all four H3 relaxin analogues on RXFP4. As expected, the H3 acid pept ... || The bioactivity of many polypeptide hormones often requires a form of post-translational modification of their precursors. An example of a widespread modification is C-terminal amidation which often leads to an increase in bioactivity of peptides [32]–[35]. In some cases, amidation of the C-terminus has been reported to have detrimental effect on the activity of peptides, [36]. […] In the case of relaxin family peptides, H2 relaxin and INSL3, both p ...

T2 sequence (Q8TDU9 whole entry, species assumed): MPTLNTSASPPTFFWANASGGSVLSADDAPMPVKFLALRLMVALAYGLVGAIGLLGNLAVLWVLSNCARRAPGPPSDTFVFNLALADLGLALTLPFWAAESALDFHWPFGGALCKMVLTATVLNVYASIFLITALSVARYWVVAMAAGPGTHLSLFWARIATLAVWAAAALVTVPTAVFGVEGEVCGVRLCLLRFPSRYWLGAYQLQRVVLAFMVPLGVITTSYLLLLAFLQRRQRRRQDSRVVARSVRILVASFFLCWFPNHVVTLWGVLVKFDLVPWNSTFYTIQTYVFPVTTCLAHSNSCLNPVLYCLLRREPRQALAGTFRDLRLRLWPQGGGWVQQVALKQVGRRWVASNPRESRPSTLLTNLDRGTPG

H3 relaxin: neuropeptide with two chains (A and B) connected by three disulfide bonds
binding and activation of RXFP3 (RXFP3 [1]): binds and activates its cognate receptor | interaction with RXFP1 (RXFP1): with high affinity | interaction with RXFP4 (RXFP4 [2]): with high affinity

COc1ccc2[nH]cc(CCN(Cc3ccc(Cl)c(Cl)c3)C(=O)Nc3cc(C(F)(F)F)cc(C(F)(F)F)c3)c2c1 [135PAM1]
allosteric activity of 135PAM1, dependence on H3 relaxin C-terminus (RXFP3 [3]): active only when used with the non-native amidated form of H3 relaxin; also recorded: unable to act in the presence of the native form (acid) of H3 relaxin

CC[C@H](C)[C@@H]1NC(=O)[C@H](Cc2ccccc2)NC(=O)[C@H](CCC(=O)O)NC(=O)[C@H](CCCNC(=N)N)NC(=O)CNC(=O)[C@@H](NC(=O)[C@H](CC(C)C)NC(=O)[C@H](CCCNC(=N)N)NC(=O)[C@@H](NC(=O)CNC(=O)[C@H](Cc2ccc(O)cc2)NC(=O)[C@@H]2CCCN2C(=O)[C@H](C)NC(=O)[C@H](C)NC(=O)[C@@H](N)CCCNC(=N)N)C(C)C)CSSC[C@@H]2NC(=O)[C@@H](NC(=O)[C@H](CO)NC(=O)[C@H](CO)NC(=O)[C@H](CO)NC(=O)[C@H](CC(C)C)NC(=O)CNC(=O)[C@H](C)NC(=O)[C@H](CC(C)C)NC(=O)[C@@H](NC(=O)[C@@H](N)CC(=O)O)C(C)C)CSSC[C@H](NC(=O)CNC(=O)[C@H](Cc3c[nH]c4ccccc34)NC(=O)[C@H](CCCCN)NC2=O)C(=O)N[C@@H](CO)C(=O)N[C@@H](CCCCN)C(=O)N[C@@H](CO)C(=O)N[C@@H](CCC(=O)O)C(=O)N[C@@H]([C@@H](C)CC)C(=O)N[C@@H](CO)C(=O)N[C@@H](CO)C(=O)N[C@@H](CC(C)C)C(=O)N[C@H](C(=O)O)CSSC[C@@H](C(=O)NCC(=O)NCC(=O)N[C@@H](CO)C(=O)N[C@@H](CCCNC(=N)N)C(=O)N[C@@H](Cc2c[nH]c3ccccc23)C(N)=O)NC(=O)[C@H]([C@@H](C)O)NC(=O)[C@H](Cc2ccccc2)NC(=O)[C@H]([C@@H](C)CC)NC(=O)[C@H](C(C)C)NC(=O)[C@H](C)NC(=O)[C@H](CCCNC(=N)N)NC1=O [H3 A-acid]
Ki (RXFP4 [4]): 117 nM | EC50 (RXFP3 [5]): 4.9 nM | Ki (RXFP3 [6]): 151 nM | EC50 (RXFP4 [7]): 34.7 nM

INSL5: insulin-like peptide 5; native ligand of RXFP4 (Insulin-like peptide INSL5 B … KESVRLCGLEYIRTVIYICASSRW; Insulin-like peptide INSL5 A … QDLQTLCCTDGCSMTDLSALC; UniProt Q9Y5Q6 23-46; Q9Y5Q6 115-135, looked up)
C-terminus requirement for RXFP4 activity of INSL5 (RXFP4 [8]): need to be an acid for full RXFP4 activity; also recorded: C-termini were required to be free (acid) for high RXFP4 activity
